Data on 31 compounds can be found in ChEMBL document CHEMBL1139445, “Synthesis of potent and selective 2-azepanone inhibitors of human tryptase” (Bioorg Med Chem Lett, 2004).

The target in assay [1] is Serine protease 1 (Homo sapiens, UniProt P07477). In words: Compound was tested for inhibition of human trypsin. On the set-up: reference not given here.
Assay [2] deals with Tryptase (Homo sapiens, UniProt Q9BZJ3+Q15661+Q9NRR2). The assay is described as follows: Inhibition of human tryptase. It counts as protein assay.
Assay [3] concerns the target Urokinase-type plasminogen activator (Homo sapiens, UniProt P00749). In words: Compound was tested for inhibition of human urokinase-type plasminogen activator.

Several values for one entry are separate records, joined by “and”; a condition that tells them apart may be missing. Identical values can stand only once. Some results are limits rather than exact numbers.

Serine protease 1, sequence (P07477 whole entry): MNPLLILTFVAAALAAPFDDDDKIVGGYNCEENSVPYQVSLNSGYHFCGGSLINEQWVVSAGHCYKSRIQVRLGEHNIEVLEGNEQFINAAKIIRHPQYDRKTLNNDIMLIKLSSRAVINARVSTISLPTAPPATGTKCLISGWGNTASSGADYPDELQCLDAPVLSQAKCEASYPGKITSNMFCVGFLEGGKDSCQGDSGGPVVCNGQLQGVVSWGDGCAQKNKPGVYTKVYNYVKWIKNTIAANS

In the case of `Cc1ccc(CN)cc1NC(=O)CN1CCCCC(NC(=O)c2ccc(-c3ccccc3)cc2)C1=O` (centres undefined), the selectivity ratio in assay [1] and in assay [3] was above 450 each time. In assay [2], the IC50 worked out at 0.074 µM.
Turning to `Cc1ccc(-c2ccc(C(=O)NC3CCCCN(CC(=O)Nc4cccc(CN)c4)C3=O)cc2)cc1` (centres undefined), the IC50 in assay [2] was 1.3 µM.
For the compound `NCCCCCNC(=O)CN1CCCCC(NC(=O)c2ccc(-c3ccccc3)cc2)C1=O` (centres undefined), in assay [2], the IC50 stood at 12 µM.
As for `NC1CCCc2ccc(NC(=O)CN3CCCCC(NC(=O)c4ccc(-c5ccccc5)cc4)C3=O)cc21` (centres undefined), in assay [2], the IC50 was above 33 µM.
On the same count and under the same terms, for `NCc1ccccc1NC(=O)CN1CCCCC(NC(=O)c2ccc(-c3ccccc3)cc2)C1=O` (centres undefined) the value was above 33 µM.
Same read-out and setting: next, `NCc1cccc(NC(=O)CN2CCCCC(NC(=O)Cc3ccc(-c4ccccc4)cc3)C2=O)c1` (centres undefined): 5.2 µM; `NCC1CCC(NC(=O)CN2CCCCC(NC(=O)c3ccc(-c4ccccc4)cc3)C2=O)CC1` (centres undefined): 12 µM; `CCN(CC)Cc1cccc(NC(=O)CN2CCCCC(NC(=O)c3ccc(-c4ccccc4)cc3)C2=O)c1` (centres undefined): above 33 µM.
Regarding `NCc1cccc(NC(=O)CN2CCCCC(NC(=O)COc3ccc4ccccc4c3)C2=O)c1` (centres undefined), the IC50 in assay [2] worked out at 4.6 µM.
`O=C(CN1CCCCC(NC(=O)c2ccc(-c3ccccc3)cc2)C1=O)Nc1ccc2c(c1)CNCC2` (centres undefined): in assay [2], the IC50 is above 33 µM.
On to `NCCCCCCNC(=O)CN1CCCCC(NC(=O)c2ccc(-c3ccccc3)cc2)C1=O` (centres undefined), for which the 50% inhibitory concentration (IC50) in assay [2] is above 33 µM.
The same measure, in the same setting: for `Nc1ccc(CNC(=O)CN2CCCCC(NC(=O)c3ccc(-c4ccccc4)cc3)C2=O)cc1` (centres undefined) the value was above 33 µM; for `NCc1ccc(NC(=O)CN2CCCCC(NC(=O)c3ccc(-c4ccccc4)cc3)C2=O)cc1` (centres undefined), 3.6 µM; for `NCCCCNC(=O)CN1CCCCC(NC(=O)c2ccc(-c3ccccc3)cc2)C1=O` (centres undefined), above 33 µM.
Compound `CNCc1cccc(NC(=O)CN2CCCCC(NC(=O)c3ccc(-c4ccccc4)cc3)C2=O)c1` (centres undefined) showed an IC50 in assay [2] above 33 µM.
In assay [2], `NCc1cccc(NC(=O)CN2CCCCC(NC(=O)c3cnc4ccccc4c3)C2=O)c1` (centres undefined) showed an IC50 of 15 µM.
For the compound `O=C(CN1CCCCC(NC(=O)c2ccc(-c3ccccc3)cc2)C1=O)NCC1CCNCC1` (centres undefined), the IC50 in assay [2] was above 33 µM.
Still for that read-out and setting: for `CCc1ccc(C(=O)NC2CCCCN(CC(=O)Nc3cccc(CN)c3)C2=O)cc1` (centres undefined) the value was 4.6 µM.
Still for that read-out and setting: for `NCc1cccc(CNC(=O)CN2CCCCC(NC(=O)c3ccc(-c4ccccc4)cc3)C2=O)c1` (centres undefined) the value was 13 µM; for `NCc1cccc(NC(=O)CN2CCCCC(NC(=O)c3ccc(Cc4ccccc4)cc3)C2=O)c1` (centres undefined), 0.98 µM.
In assay [2], `CCc1ccc(-c2ccc(C(=O)NC3CCCCN(CC(=O)Nc4cccc(CN)c4)C3=O)cc2)cc1` (centres undefined) returned an IC50 of 2.9 µM.
Same read-out and setting: next, `NCc1cccc(NC(=O)CN2CCCCC(NC(=O)CCCCc3ccccc3)C2=O)c1` (centres undefined): 2.9 µM.
On to `NCc1cccc(NC(=O)CN2CCCCC(NC(=O)c3ccc(-c4ccccc4)cc3)C2=O)c1` (centres undefined), for which the selectivity ratio in assay [1] and in assay [3] was above 130 each time. In addition, the half-maximal inhibitory concentration (IC50) in assay [2] was 0.25 µM and > 0.25 µM.
The compound `Nc1cccc(CNC(=O)CN2CCCCC(NC(=O)c3ccc(-c4ccccc4)cc3)C2=O)c1` (centres undefined) showed an IC50 in assay [2] above 33 µM.
On to `NCc1cccc(NC(=O)CN2CCCCC(NC(=O)CC(c3ccccc3)c3ccccc3)C2=O)c1` (centres undefined), for which the selectivity ratio in assay [1] and in assay [3] was above 170 in each case. In assay [2], the IC50 was 0.2 µM.
With `NCc1cccc(NC(=O)CN2CCCCC(NC(=O)c3ccc(-c4ccc(Cl)c(Cl)c4)cc3)C2=O)c1` (centres undefined), in assay [2], the IC50 was found to be 2.1 µM.
As to `NCc1ccc(Cl)c(NC(=O)CN2CCCCC(NC(=O)c3ccc(-c4ccccc4)cc3)C2=O)c1` (centres undefined), the selectivity ratio in assay [1] is 360; in assay [3], above 870. In assay [2], this compound registered an IC50 of 0.038 µM.
For the compound `NC(=O)c1cccc(NC(=O)CN2CCCCC(NC(=O)c3ccc(-c4ccccc4)cc3)C2=O)c1` (centres undefined), in assay [2], the 50% inhibitory concentration (IC50) was above 33 µM.
`NCCc1ccc(NC(=O)CN2CCCCC(NC(=O)c3ccc(-c4ccccc4)cc3)C2=O)cc1` (centres undefined) gave a concentration for half-maximal inhibition (IC50) in assay [2] of 11 µM.
Same read-out and setting: next, `COc1ccc(CN)cc1NC(=O)CN1CCCCC(NC(=O)c2ccc(-c3ccccc3)cc2)C1=O` (centres undefined): 0.89 µM; `NCc1cccc(NC(=O)CN2CCCCC(NC(=O)c3ccc(C4CCCCC4)cc3)C2=O)c1` (centres undefined): 0.98 µM.
